The source of these data is PubChem BioAssay AID588620 (NMMLSC, 2011).

Active and inactive are the calls of the source.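 Rule for the calls: active = fitted half-maximal concentration below 30 µM for cell fluorescence in pump-free yeast, so likely self-fluorescent; inactive = the rest.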

The nature of the assay: concentration-dependent intrinsic compound fluorescence, S. cerevisiae AD/pABC3, flow cytometry, Cherry Pick1 hits, artefact control for antifungal efflux pump inhibitor project, dose response (AID 588620).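 Note: red emission of unstained cells excited at 488 nm measured in PE-Texas Red channel; cell median fluorescence as percent of DMSO wells so 100% equals vehicle baseline.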 Particulars: S. cerevisiae AD/pABC3 compound autofluorescence, flow cytometry; at 33.1 µM (top of the series). In general terms: In flow cytometry, cells or beads pass a laser one at a time.
Take `CC(C)c1ccc(C(=O)NC(=S)Nc2ccc3[nH]c(=O)[nH]c3c2)cc1`: the fluorescence response, % of control is 158% (inactive).

`COc1ccccc1-c1sc2ccccc2c1-c1ccc(OCCN2CCCCC2)cc1`: the fluorescence response, % of control was 102% (inactive).

In the case of `Cc1ccc(C(=O)N2CCC3(CC2)Oc2ccc(Cl)cc2C(=O)C32CC(c3ccccc3)=NO2)s1` (stereo not drawn), the fluorescence response, % of control was 105% (inactive).

Regarding `Cc1ccc(-c2cc(C(=O)Nc3ccc(S(=O)(=O)Nc4ncccn4)cc3)c3ccccc3n2)cc1`, the fluorescence response, % of control was 96.3% (inactive).

With `Cc1ccc(CN2C(=O)C(Cc3ccccc3)Nc3ncnc(N4CCN(c5ccccc5)CC4)c32)cc1` (stereo not drawn), the fluorescence response, % of control is 111% (inactive).

`COc1ccc(NC(=O)Nc2cccc3c2O[C@H](CN(C)C(=O)NC2CCCCC2)[C@@H](C)CN([C@H](C)CO)C3=O)cc1`: the fluorescence response, % of control was 80.3% (inactive).

On to `CCOC(=O)c1sc2nc3c(SCC(=O)O)cc(C(=O)c4ccccc4O)cn3c(=O)c2c1C`, for which the fluorescence response, % of control is 132% (inactive).

As to `COc1ccc2cc(C#N)c(N3CCN(Cc4nnnn4CCC(C)C)CC3)nc2c1`, the fluorescence response, % of control was 113% (inactive).

Regarding `CSCCC(NC(=O)c1ccccc1Cl)C(=O)N1CCN(C(c2ccccc2)c2ccccc2)CC1` (stereo not drawn), the fluorescence response, % of control was 80.9% (inactive).

On to `OCCN1CCN(CC/C=C2/c3ccccc3Sc3ccc(C(F)(F)F)cc32)CC1`, for which the fluorescence response, % of control was 332% (inactive).

Consider `NC(=O)c1nc(-c2cccs2)nc2c1[nH]c(=O)n2-c1ccc(F)cc1`, for which the fluorescence response, % of control was 93.5% (inactive).

With `CCOc1ccccc1-c1nc(C(N)=O)c2[nH]c(=O)n(-c3cccc(C)c3)c2n1`, the fluorescence response, % of control was 80.3% (inactive).

With `COc1ccc2nc(C)cc(Sc3nc4ccccc4s3)c2c1`, the fluorescence response, % of control was 100% (inactive).

Take `O=c1[nH]c(C2CCN(S(=O)(=O)c3ccc4c(c3)OCCO4)CC2)nc2c1nnn2Cc1ccccc1F`: the fluorescence response, % of control is 82.5% (inactive).

For the molecule `CCOC(=O)c1cccc(NC(=O)c2ccc(NC(=O)c3ccco3)cc2)c1`, the fluorescence response, % of control is 85.8% (inactive).

For the molecule `CC(C)OC(=O)c1ccc(COC(=O)c2cccc(-c3nnc(-c4ccccc4)o3)c2)cc1`, the fluorescence response, % of control was 118% (inactive).

Turning to `c1ccc2c(c1)Cc1cc(CN3CCOCC3)ccc1-2`, the fluorescence response, % of control is 109% (inactive).

Regarding `COc1ccc(C(=O)NC2CCCc3c2cnn3-c2cccc(C)c2C)c(OC)n1` (stereo not drawn), the fluorescence response, % of control is 75.9% (inactive).

Consider `CCOc1ccccc1-c1nc(C(N)=O)c2[nH]c(=O)n(-c3ccc(F)cc3)c2n1`, for which the fluorescence response, % of control is 136% (inactive).

Turning to `COc1ccc(-c2sc3cc(OC)ccc3c2-c2ccc(OCCN3CCOCC3)cc2)cc1`, the fluorescence response, % of control is 153% (inactive).

On to `CCCOc1ccc(-c2nc(N3CCN(C)CC3)c3ccccc3n2)cc1`, for which the fluorescence response, % of control was 95.7% (inactive).

Take `Cc1ccc(-n2c(=O)[nH]c3c(C(N)=O)nc(-c4ccc(C)o4)nc32)cc1`: the fluorescence response, % of control is 99.1% (inactive).

On to `Nc1ccc2nc(-c3cccc(-c4nc5ccc(N)cc5[nH]4)c3)[nH]c2c1`, for which the fluorescence response, % of control was 99.3% (inactive).

On to `C[C@H](CO)N1C[C@H](C)[C@@H](CN(C)S(=O)(=O)c2ccccc2)Oc2c(NC(=O)Nc3ccccc3)cccc2C1=O`, for which the fluorescence response, % of control is 83.7% (inactive).

Regarding `CCn1ncc(Br)c1C(=O)Nc1cc(C)cc(C)c1`, the fluorescence response, % of control is 129% (inactive).

On to `O=C(/C=C/c1cccs1)N1CCC2(CC1)Oc1ccc(F)cc1C(=O)C21CC(c2ccccc2)=NO1` (stereo not drawn), for which the fluorescence response, % of control is 96.4% (inactive).

Regarding `COc1ccc(/C=C2\SC(c3ccc(C)cc3)=NC2=O)cc1OC`, the fluorescence response, % of control is 289% (inactive).

Consider `COc1ccc(-n2ncc3c2CC(C)(C)CC3NC(=O)c2cnc(C)cn2)cc1` (stereo not drawn), for which the fluorescence response, % of control is 99.3% (inactive).

In the case of `Cc1ccc(Cl)cc1N1CCN(c2cccc[n+]2C)CC1`, the fluorescence response, % of control was 95.1% (inactive).

As to `O=C(O)c1ccc(-c2ccc(/C=c3/sc4nc5ccccc5n4c3=O)o2)cc1Cl`, the fluorescence response, % of control is 365% (inactive).

Regarding `O=C(NC(=S)Nc1ccc2[nH]c(=O)[nH]c2c1)c1cncc(Br)c1`, the fluorescence response, % of control is 102% (inactive).

With `CCOc1ccccc1-c1nc(C(N)=O)c2[nH]c(=O)n(-c3ccccc3)c2n1`, the fluorescence response, % of control was 90.8% (inactive).

For the molecule `COc1cccc(-c2sc3cc(OC)c(OC)cc3c2-c2ccc(OCCN3CCCCC3)cc2)c1`, the fluorescence response, % of control is 112% (inactive).

On to `CCOC(=O)CC(=O)c1cc(OC)c(OC)c(OC)c1`, for which the fluorescence response, % of control was 96.1% (inactive).

As to `O=c1[nH]c(C2CCN(S(=O)(=O)c3ccc4c(c3)OCCO4)CC2)nc2c1nnn2Cc1cccc(F)c1`, the fluorescence response, % of control is 172% (inactive).

On to `O=C(NCC1CCCO1)c1ccc(Br)c(S(=O)(=O)N2CCOCC2)c1` (stereo not drawn), for which the fluorescence response, % of control is 96.3% (inactive).

For the molecule `Nc1c(Cl)cc(C2=NCCn3nc4ccccc4c32)cc1Cl`, the fluorescence response, % of control is 88.6% (inactive).

Regarding `COc1ccc2cc(CN(CC3CCCO3)S(=O)(=O)c3ccc(C(C)=O)cc3)c(=O)[nH]c2c1` (stereo not drawn), the fluorescence response, % of control was 78.2% (inactive).

Turning to `CCOC(=O)c1cnc(SC)nc1Oc1cccc(NC(=O)c2ccc(Cl)cc2)c1`, the fluorescence response, % of control was 90.9% (inactive).

Take `Cc1sc2ncnc(SC(C)C(=O)N3c4ccccc4Sc4ccccc43)c2c1C` (stereo not drawn): the fluorescence response, % of control was 126% (inactive).

Consider `O=C(Nc1ccccc1C(=O)O)c1ccc(NC(=O)c2ccc(Br)o2)cc1`, for which the fluorescence response, % of control is 107% (inactive).

`Cc1ccc(CN(Cc2cccnc2)C(=O)CN2C(=O)COc3ccccc32)o1`: the fluorescence response, % of control is 96.1% (inactive).

On to `O=C(O)CCN1C(=O)/C(=C\c2ccc(-c3nc4ccccc4s3)o2)SC1=S`, for which the fluorescence response, % of control was 102% (inactive).

`CCCCn1c(N)c(N(CC(C)C)C(=O)CN2C(=O)NC3(CC(C)CC(C)(C)C3)C2=O)c(=O)[nH]c1=O` (stereo not drawn): the fluorescence response, % of control is 95.1% (inactive).

Take `Cn1cc(C(c2ccccn2)c2cn(C)c3ccccc23)c2ccccc21`: the fluorescence response, % of control is 97.1% (inactive).

Regarding `COc1cc2c(=O)n(Cc3ccco3)c(=O)n(CC(=O)c3cccc(Br)c3)c2cc1OC`, the fluorescence response, % of control was 86.2% (inactive).

As to `O=C1C(Cc2ccccc2)Nc2ncnc(N3CCN(c4ccccc4)CC3)c2N1Cc1ccc(Br)cc1` (stereo not drawn), the fluorescence response, % of control was 116% (inactive).

`Cc1ccc(CC2CC(=O)N(Cc3ccco3)C2=O)cc1` (stereo not drawn): the fluorescence response, % of control is 93.5% (inactive).

`CC1(C)CC2(CC(c3cccs3)c3cc(Cl)c(O)cc3O2)NC(=S)N1` (stereo not drawn): the fluorescence response, % of control is 113% (inactive).

In the case of `CCC1Nc2ncnc(N3CCN(c4ccccc4)CC3)c2N(Cc2ccccc2)C1=O` (stereo not drawn), the fluorescence response, % of control was 103% (inactive).

With `O=C(O)Cc1ccc(NC(=O)c2ccc(NC(=O)c3ccco3)cc2)cc1`, the fluorescence response, % of control was 109% (inactive).

As to `CN(C)CCN(C(=O)c1ccc(S(=O)(=O)N2CCc3ccccc32)cc1)c1nc2ccc(F)cc2s1`, the fluorescence response, % of control was 196% (inactive).

Turning to `CCCCn1c(=N)n(CC(O)COc2ccc(C)cc2)c2ccccc21` (stereo not drawn), the fluorescence response, % of control is 106% (inactive).

`CCN(CC)C(=O)CSc1nnc(-c2ccncc2)n1N`: the fluorescence response, % of control was 127% (inactive).

Regarding `CCCCOc1ccc(NC2=NC3(CCCC3)N=C(N)N2)cc1`, the fluorescence response, % of control was 73.8% (inactive).

As for `O=S(=O)(NCCc1cn2ccccc2n1)c1ccc(F)c(C(F)(F)F)c1`, the fluorescence response, % of control is 118% (inactive).

Consider `O=C1/C(=C/c2ccc(O)c(O)c2)Oc2cc(O)ccc21`, for which the fluorescence response, % of control is 426% (inactive).

With `COc1ccc2nc(NC(=O)c3ccoc3C)sc2c1`, the fluorescence response, % of control was 117% (inactive).

Consider `O=C(CSc1nnc(-c2cccnc2)n1Cc1ccco1)c1ccc(Cl)c(Cl)c1`, for which the fluorescence response, % of control was 81.2% (inactive).

As to `CN(C(=O)c1ccc(NC(=O)c2ccco2)cc1)c1ccccc1`, the fluorescence response, % of control is 105% (inactive).

Consider `COc1ccc(C2=NCC(=O)N(CC(=O)NCc3ccco3)c3sc4c(c32)CCCC4)cc1`, for which the fluorescence response, % of control was 95.7% (inactive).

Consider `COc1ccc2c(c1)C(=O)N1[C@H]3c4cc(Cl)ccc4OC[C@@H]3[C@H](c3ccccc3)[C@]1(C)C(=O)N2`, for which the fluorescence response, % of control is 98.5% (inactive).

As for `COc1ccc(-c2nc(Cn3c(SCc4ccc(C)cc4)nc4ccncc43)c(C)o2)cc1OC`, the fluorescence response, % of control was 87.6% (inactive).

With `COc1cc(OC)cc(-c2sc3ccc(OC)cc3c2-c2ccc(OCCN3CCCCC3)cc2)c1`, the fluorescence response, % of control is 122% (inactive).

Turning to `O=C1Nc2ccccc2/C1=C/c1cnc(-c2ccccc2)[nH]1`, the fluorescence response, % of control was 128% (inactive).

As to `O=C(c1ccc2c(c1)OCO2)N1CCC2(CC1)Oc1ccc(Cl)cc1C(=O)C21CC(c2ccccc2)=NO1` (stereo not drawn), the fluorescence response, % of control is 90.9% (inactive).

As to `COc1ccc(-c2nc3ccccc3c(=O)n2CCOc2ccccc2C)cc1`, the fluorescence response, % of control was 103% (inactive).

Take `Cc1ccc(CNC(=O)CCCn2nc(C)c3c(C)n(-c4ccccc4)nc3c2=O)cc1`: the fluorescence response, % of control is 93.6% (inactive).

Regarding `Cc1ccc(Cn2nnc3c(=O)[nH]c(C4CCN(S(=O)(=O)c5ccccc5)CC4)nc32)cc1`, the fluorescence response, % of control is 87.4% (inactive).

Take `Cc1ccc(Cn2nnc3c(=O)[nH]c(C4CCN(S(=O)(=O)c5ccc(C)cc5)CC4)nc32)cc1`: the fluorescence response, % of control was 91.7% (inactive).

Turning to `Cc1ccc(-c2c3c([nH]c(=S)c2C#N)CCCC3)o1`, the fluorescence response, % of control is 162% (inactive).

As for `O=C1C(Cc2ccccc2)Nc2ncnc(N3CCN(c4ccccc4)CC3)c2N1Cc1ccccc1` (stereo not drawn), the fluorescence response, % of control is 105% (inactive).

`Cc1nn(CC(=O)NCc2cccs2)c(=O)c2nn(-c3ccccc3)c(C)c12`: the fluorescence response, % of control was 99% (inactive).
